Results on one compound are retold here after patent US20120053168A1, “FUSED BENZOAZEPINES AS NEURONAL NICOTINIC ACETYLCHOLINE RECEPTOR LIGANDS” (Targacept, Inc., priority 2009, published 2012).

In assay [1] the target is T1, human muscle nAChR subtype (Homo sapiens, UniProt P02708+P07510+Q07001).
T1 construct: endogenous in cells; host or cells: TE671/RD human rhabdomyosarcoma cells
The assay can be described thus: 86Rb+ efflux in TE671/RD cells (human muscle nAChR subtype). The format is cell-based. An excerpt:
Example 7: Interaction at the Human Muscle nAChR Subtype
Activation of muscle-type nAChRs was established on the human clonal line TE671/RD, which is derived from an embryonal rhabdomyosarcoma (Stratton et al., Carcinogen 10: 899 (1989)). These cells express receptors that have pharmacological (Lukas, J. Pharmacol. Exp. Ther. 251: 175 (1989)), electrophysiological (Oswald et al., Neurosci. Lett. 96: 207 (1989)), and molecular biological profiles (Luther et al., J. Neurosci. 9: 1082 (1989)) similar to the muscle-type nAChR.
TE671/RD cells were maintained in proliferative growth phase according to routine protocols (Bencherif et al., Mol. Cell. Neurosci. 2: 52 (1991) and Bencherif et al., J. Pharmacol. Exp. Ther. 257: 946 (1991)). […]
Nicotinic acetylcholine receptor (nAChR) function was assayed using ^86Rb^+efflux according to the method described by Lukas et al., Anal. Biochem. 175: 212 (1988). […] Scintillation fluid was added and released radioactivity was measured by liquid scintillation counting. […]
When appropriate, dose-response curves of test compound were determined. The maximal activation for individual compounds (Emax) was determined as a percentage of the maximal activation induced by L-nicotine. The compound concentration resulting in half maximal activation (EC50) of specific ion flux was also determined.

For the next assay, the system named is normal rats. The assay can be described thus: Novel Object Recognition (NOR) task. The format is in vivo, rat. As for the experimental part:
Episodic memory is a cognitive domain known to be impaired in Alzheimer's disease; the Novel Object Recognition task is a commonly used and quick, clean model used to assess potential cognitive benefit derived from the test compounds. Compound A (7,8,9,10-tetrahydro-6H-azepino[4,5-g]quinoxaline) improved long-term visual episodic/declarative memory as assessed by novel object recognition (NOR) task following oral dosing in normal rats. Memory was assessed by using the three-trial object recognition test. On the first day (exploratory trial), rats were allowed to explore an open arena (44.5×44.5×30.5 cm) for 6 min. On the second day (acquisition trial), rats were allowed to explore the same arena in the presence of two identical objects (both object A) for 3 minutes. On the third day (retention or recall trial), performance was evaluated by allowing the same animal to re-explore the arena for 3 minutes in the presence of two different objects: the familiar object A and a novel object B. An inter-trial interval of 24 hours was imposed between the three NOR trials. Recognition memory was assessed by comparing the time spent exploring a novel (object B) versus a familiar (object A) object during the recall trial. Recognition index was assessed for each animal and expressed as a ratio ((time B/time A+time B)×100).
Compound A was evaluated for its duration of effect in the NOR task in normal rats. Using similar experimental procedures as described earlier, 0.03, 0.1, and 0.3 mg/kg (0.15, 0.5 and 1.51 μmol/kg) Compound A was orally administered to animals 30 minutes prior to placement in the arena for the exploratory and acquisition trials. For the recall trial (i.e., third day of dosing), animals were placed in the arena at 6 h, post administration.
A follow-up NOR study evaluated the duration of effect of Compound A following a 6 h pre-treatment prior to the recall trial.

T1 sequence (P02708 21-457): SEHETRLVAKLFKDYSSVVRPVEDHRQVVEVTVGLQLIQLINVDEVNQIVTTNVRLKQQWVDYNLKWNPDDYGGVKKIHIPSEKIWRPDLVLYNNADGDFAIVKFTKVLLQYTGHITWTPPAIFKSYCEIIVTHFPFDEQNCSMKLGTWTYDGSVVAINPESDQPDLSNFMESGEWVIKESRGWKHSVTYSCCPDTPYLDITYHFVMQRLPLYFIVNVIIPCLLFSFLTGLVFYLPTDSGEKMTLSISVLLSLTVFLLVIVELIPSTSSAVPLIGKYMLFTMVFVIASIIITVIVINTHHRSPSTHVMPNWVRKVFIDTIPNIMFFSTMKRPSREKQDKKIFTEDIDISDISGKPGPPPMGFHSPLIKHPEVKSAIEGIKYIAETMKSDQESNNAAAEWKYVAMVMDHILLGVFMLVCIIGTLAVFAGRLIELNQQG
T1 sequence (P07510 23-517): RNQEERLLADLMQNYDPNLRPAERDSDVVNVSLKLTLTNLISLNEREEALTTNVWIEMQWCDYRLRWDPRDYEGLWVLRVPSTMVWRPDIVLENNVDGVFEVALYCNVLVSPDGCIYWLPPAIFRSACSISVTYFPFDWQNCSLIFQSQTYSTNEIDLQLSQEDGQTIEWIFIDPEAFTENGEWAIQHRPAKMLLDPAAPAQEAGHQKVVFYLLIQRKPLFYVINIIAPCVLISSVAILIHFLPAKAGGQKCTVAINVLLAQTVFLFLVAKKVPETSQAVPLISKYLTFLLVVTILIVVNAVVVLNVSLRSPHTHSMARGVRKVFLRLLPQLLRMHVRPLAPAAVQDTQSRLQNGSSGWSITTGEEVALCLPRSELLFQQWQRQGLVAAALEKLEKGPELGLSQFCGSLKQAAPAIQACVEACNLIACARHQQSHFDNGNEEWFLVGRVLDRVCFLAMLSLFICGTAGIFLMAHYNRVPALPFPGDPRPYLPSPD
T1 sequence (Q07001 22-517): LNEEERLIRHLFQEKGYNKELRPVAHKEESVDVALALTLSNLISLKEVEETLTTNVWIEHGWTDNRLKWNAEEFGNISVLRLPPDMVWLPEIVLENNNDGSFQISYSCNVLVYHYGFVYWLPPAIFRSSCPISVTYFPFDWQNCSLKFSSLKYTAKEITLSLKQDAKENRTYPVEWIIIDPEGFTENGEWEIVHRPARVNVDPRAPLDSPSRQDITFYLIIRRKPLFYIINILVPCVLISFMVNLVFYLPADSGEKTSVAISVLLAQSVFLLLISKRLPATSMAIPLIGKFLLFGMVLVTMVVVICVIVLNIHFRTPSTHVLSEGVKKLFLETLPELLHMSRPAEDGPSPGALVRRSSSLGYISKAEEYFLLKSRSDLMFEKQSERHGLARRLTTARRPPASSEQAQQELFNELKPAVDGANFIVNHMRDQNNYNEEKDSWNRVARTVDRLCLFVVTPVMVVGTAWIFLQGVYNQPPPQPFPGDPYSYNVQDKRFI
T1 sequence (P11230 24-501 partner): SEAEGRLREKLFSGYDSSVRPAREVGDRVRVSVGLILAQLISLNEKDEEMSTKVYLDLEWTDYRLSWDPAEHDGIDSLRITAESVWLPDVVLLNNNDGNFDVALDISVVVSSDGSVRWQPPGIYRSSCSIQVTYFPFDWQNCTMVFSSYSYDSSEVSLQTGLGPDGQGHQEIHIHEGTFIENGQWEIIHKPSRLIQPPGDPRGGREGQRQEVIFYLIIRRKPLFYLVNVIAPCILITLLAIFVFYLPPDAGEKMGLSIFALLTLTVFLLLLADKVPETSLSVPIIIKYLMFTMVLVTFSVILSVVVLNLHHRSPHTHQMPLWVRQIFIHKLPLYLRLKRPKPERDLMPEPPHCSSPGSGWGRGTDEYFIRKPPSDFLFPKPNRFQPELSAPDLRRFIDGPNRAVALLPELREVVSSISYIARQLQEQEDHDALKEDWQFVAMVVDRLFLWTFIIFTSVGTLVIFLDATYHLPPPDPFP

As usually defined, the EC50 is the midpoint of the concentration-response curve. The low end stands for higher potency in that assay, the high end for lower potency in that assay. The Emax is the greatest response seen or fitted, relative to the assay's reference. Regarding `c1cnc2cc3c(cc2n1)CCNCC3` [Compound A, 7,8,9,10-tetrahydro-6H-azepino[4,5-g]quinoxaline], in assay [1] (86Rb+ efflux), the EC50 was 75 µM. In addition, the Emax in assay [1] (percentage of maximal activation induced by L-nicotine) was 23%. The recognition index was determined as 64±3% in the assay on normal rats (0.03 mg/kg (0.15 μmol/kg) p.o., 6 h pre-treatment prior to the recall trial, vehicle 52±0.5%); 69±5% with normal rats (0.3 mg/kg (1.5 μmol/kg) p.o., 30 minutes before the three trials, vehicle 50±0.5%); 68±3% in the assay on normal rats (0.3 mg/kg (1.5 μmol/kg) p.o., 6 h pre-treatment prior to the recall trial, vehicle 52±0.5%); 65±3% in the assay with normal rats (3 mg/kg (15.1 μmol/kg) p.o., 30 minutes before the three trials, vehicle 50±0.5%). Also, the “duration of effect on recognition memory index” value in the assay on normal rats (0.15 and 1.51 μmol/kg p.o., recall trial 6 h post administration) is given as “facilitated recognition memory index for up to 6 h after dosing”. In addition, the “effect on recognition memory (enhancement of recognition index vs vehicle)” value in the assay on normal rats (0.3 and 3 mg/kg p.o., 30 minutes before the three trials) is recorded as “facilitated recognition memory”.
